{"source": "patent US20090156639A1", "about": "“COMPOSITIONS AND METHODS OF TREATMENT USING L-TYPE CALCIUM CHANNEL BLOCKERS AND CHOL[…]” (priority 2003, published 2009)", "system": "young adult male Sprague-Dawley rats", "assay": "Novel Object Recognition Memory test (hippocampus-dependent nonspatial memory task)", "format": "in vivo, rat", "conditions": "for % Exploration of the novel object: prior to training, test 24 hours after training, n=6; for approximate optimum dosage in the Novel Object Recognition Memory test: from dose response data (FIGS. 1, 2, 4)", "note": "Where a name gives a salt, the structure may show the parent alone.", "protocol": "The general procedure for compound evaluation in Novel Object Recognition Memory (Hippocampus-Dependent Nonspatial Memory Task) is as follows: • 1. The animals are transported in their home cages from the vivarium to a dimly lit (5-6 lux) training room and acclimated for approximately 45 minutes. • 2. The animals are than individually placed in the training/testing environment (an opaque plastic chamber, 61 cm×42 cm×37 cm with bedding on the floor) for 5 minutes of habituation. Thereafter, the animals are returned to their home cage.\nThey remained in the testing room for approximately 15 minutes after the last animal is habituated before being returned to their colony room.\nFor the memory test, the objects to be discriminated are a goblet (11 cm in height, 6.5 cm in diameter) and a conical candlestick holder (11 cm in height, 6 cm in diameter) made of green, nontransparent glass. There are multiple copies of each object used for training and testing. Object pairs are randomly assigned within and between conditions. For training, two identical objects are placed 8 cm from the sides of the two short walls of the chamber. • 4. The day after initial habituation, the animals are returned to the testing room and acclimated as described in Step 1. Drug and/or vehicle is then administered according to experimental design (i.p.: 263/8-gauge needle; or p.o.: 18-gauge needle) at an interval ranging from 24 hours prior to 24 hours post-training. The training procedure is begun by placing the animal, nose facing the wall, into the empty chamber at a position in the center of a long wall. After 1 minute of re-habituation, the animal is removed from the chamber and placed in a holding cage (45 cm×26 cm×20 cm) with bedding for a period of 10 seconds. During this delay, the training objects are placed in the chamber. The animal is then returned to the chamber for a 15-minute period of exploration. The animal's movements are observed via cameral located over the chamber and are recorded on videotape. After the training session, the animal is returned to its home cage. The objects are cleaned with an 85% EtOH solution. The animals remain in the testing room for approximately 15 minutes after the last animal is trained before being returned to their colony room. • 5. Following a delay interval (1 hour to several weeks, but usually 24 hours), the animals are again returned to the testing room and acclimated as described in Step 1. After this, individual animals are re-habituated to the empty chamber for 1 minute as was described in Step 4. For the test, two new objects are placed in the chamber: one is identical to the objects used during training, while the other is novel. The position of the novel object is randomized for each animal. The animals are allowed to actively explore until they accumulate a total of 60 seconds of exploration. During the test period, the amount of time spent exploring either the novel or the familiar object is recorded using R. E. Clark's V.P.C. program, which also signals when 60 seconds of exploration has been accumulated. The animal's movements are observed via a camera located over the chamber and are recorded on videotape. Any animal that fails to explore either object or to reach the set criterion within 15 minutes is excluded from analysis. After the test, the animals are returned to their home cage, and then to the colony room. The objects are cleaned with an 85% EtOH solution. • 6.", "data": [{"smiles": "COc1cc2c(cc1OC)C(=O)C(CC1CCN(Cc3ccccc3)CC1)C2", "note": "(racemic) [donepezil, (+/−) 2,3-dihydro-5,6-dimethoxy-2-[[1-(phenylmethyl)-4-piperidinyl]methyl]-IH-indene-1-one hydrochloride]", "values": [{"measurement": "% Exploration of the novel object", "setting": "donepezil 0.05 mg/kg i.p. alone (suboptimal dose) plus vehicle", "result": 50, "unit": "%"}, {"measurement": "approximate optimum dosage in the Novel Object Recognition Memory test", "result": "~0.5", "unit": "mg/kg"}]}, {"smiles": "COCCOC(=O)C1=C(C)NC(C)=C(C(=O)OC(C)C)C1c1cccc(C#N)c1Cl", "note": "(single isomer, unassigned; (+)) [Compound A, (+) isopropyl 2-methoxyethyl 4-(2-chloro-3-cyano-phenyl)-1,4-dihydro-2,6-dimethylpyridine-3,5-dicarboxylate]", "values": [{"measurement": "% Exploration of the novel object", "setting": "Compound A 1.00 mg/kg i.p. alone (suboptimal dose) plus vehicle", "result": 50, "unit": "%"}, {"measurement": "approximate optimum dosage in the Novel Object Recognition Memory test", "result": "~10", "unit": "mg/kg"}]}, {"smiles": "CC12CC3CC(C)(C1)CC(N)(C3)C2", "note": "[memantine]", "values": [{"measurement": "approximate optimum dosage in the Novel Object Recognition Memory test", "result": "~1.0", "unit": "mg/kg"}]}]}
